Data taken from paper PMC13090440, “Targeting SARS-CoV-2 main protease (3CL^pro) with Paeonia-derived phytochemicals” (In Silico Pharmacology, 2026).
pIC50: −log10 of the molar value.

Molecular target: T1, SARS-CoV-2 3CL^pro (Severe acute respiratory syndrome coronavirus 2, UniProt P0DTD1)
T1 construct: gene rep
Assay: fluorogenic peptide cleavage assay, continuous
Format: biochemical

## COc1c(-c2ccc(O)c(O)c2)oc2cc(O)cc(O)c2c1=O [3-O-methylquercetin]
  pIC50: 4.36
